Values quoted from earlier work, collected in patent publication US20100173381A1, “CRYSTAL STRUCTURES OF HIV-1 PROTEASE INHIBITORS BOUND TO HIV-1 PROTEASE” (UNIVERSITY OF MASSACHUSETTS, priority 2006, published 2010).

How the values were obtained:
drug-resistant HIV-1 = settings: versus clinical protease inhibitors APV, LPV, ATV, SQV, IDV, NFV
HIV-1 protease mutants = settings: M46I, T80I, P81S
[1] = tested on: the virus in cell cultures
[2] = humans
HIV-1 protease = HIV-1 protease (Human immunodeficiency virus type 1 group M subtype B, UniProt P04585)

SMILES | potency against drug-resistant proteases (drug-resistant proteases) | cross-resistance profile (drug-resistant HIV-1) | resistance of quadruple-viral mutant (HIV-1 protease mutants; K45R) | resistance of single-, double- or triple-viral mutants (HIV-1 protease mutants; mutants from K45R) | potency against the virus in cell cultures [1] | oral bioavailability [2] | inhibitory properties (HIV-1 protease)
COC(=O)N[C@H](C(=O)NCCCC[C@@H](CO)N(CC(C)C)S(=O)(=O)c1ccc(N)cc1)C(c1ccccc1)c1ccccc1 [PL-100] | highly potent | favorable cross-resistance profile | only mild resistance | did not show resistance |  |  | 
Nc1cccc(CN2C(=O)N(Cc3cccc(N)c3)[C@H](Cc3ccccc3)[C@H](O)[C@@H](O)[C@H]2Cc2ccccc2)c1 [DMP-450] |  |  |  |  | highly potent | orally bioavailable | excellent inhibitory properties
